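The compound was tested at five concentrations on cells cultured in 96-well plates, with a 48-hour exposure period. Here, GI50 denotes the concentration required for 50% inhibition of growth.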 Activity calls are given as the source filed them. No stated cut-off is given here; in the data, active = GI50 up to about 1.1 µM and inactive = higher.
Key:
Experiment in all cases: inhibition of tumour cell growth, NCI panel, 48 h
CAKI-1 = system: CAKI-1
RPMI-8226 = system: RPMI-8226
IGROV-1 = system: IGROV-1
NCI-H23 = system: NCI-H23
SK-OV-3 = system: SK-OV-3
Malme-3M = system: Malme-3M
M14 = system: M14
DU-145 = system: DU-145
Hs-578T = system: Hs-578T
HCT-15 = system: HCT-15
HT-29 = system: HT-29
SK-MEL-28 = system: SK-MEL-28
TK-10 = system: TK-10
MOLT-4 = system: MOLT-4
SF-295 = system: SF-295
NCI-H522 = system: NCI-H522
A498 = system: A498
OVCAR-5 = system: OVCAR-5
HL-60 = system: HL-60
SW-620 = system: SW-620
HOP-92 = system: HOP-92
SK-MEL-2 = system: SK-MEL-2
HOP-62 = system: HOP-62
NCI-H460 = system: NCI-H460
A549 = system: A549
OVCAR-8 = system: OVCAR-8
MDA-N = system: MDA-N
U-251 = system: U-251
HCC 2998 = system: HCC 2998
OVCAR-3 = system: OVCAR-3
HCT-116 = system: HCT-116
SK-MEL-5 = system: SK-MEL-5
NCI/ADR-RES = system: NCI/ADR-RES
CCRF-CEM = system: CCRF-CEM
SF-539 = system: SF-539
SNB-75 = system: SNB-75
UO-31 = system: UO-31
SF-268 = system: SF-268
LOX IMVI = system: LOX IMVI
RXF 393 = system: RXF 393
SR = system: SR
EKVX = system: EKVX
PC-3 = system: PC-3
786-0 = system: 786-0
OVCAR-4 = system: OVCAR-4
T47D = system: T47D
MDA-MB-435 = system: MDA-MB-435
MDA-MB-231 = system: MDA-MB-231
K562 = system: K562
MCF7 = system: MCF7
UACC-257 = system: UACC-257
ACHN = system: ACHN
SNB-19 = system: SNB-19
NCI-H226 = system: NCI-H226
SN12C = system: SN12C
KM12 = system: KM12
UACC-62 = system: UACC-62
BT-549 = system: BT-549
COLO 205 = system: COLO 205

CCOC(=O)C(Cc1ccc2c(c1)CCC2)Cc1ccc2c(c1)CCC2
GI50 (CAKI-1): > 100 µM (inactive)
GI50 (RPMI-8226): 44.4 µM (inactive)
GI50 (IGROV-1): > 100 µM (inactive)
GI50 (NCI-H23): 69 µM (inactive)
GI50 (SK-OV-3): > 100 µM (inactive)
GI50 (Malme-3M): > 100 µM (inactive)
GI50 (M14): > 100 µM (inactive)
GI50 (DU-145): > 100 µM (inactive)
GI50 (Hs-578T): > 100 µM (inactive)
GI50 (HCT-15): > 100 µM
GI50 (HT-29): 45.9 µM (inactive)
GI50 (SK-MEL-28): > 100 µM (inactive)
GI50 (TK-10): > 100 µM (inactive)
GI50 (MOLT-4): 16.9 µM (inactive)
GI50 (SF-295): 89.9 µM (inactive)
GI50 (NCI-H522): 44.9 µM (inactive)
GI50 (A498): > 100 µM (inactive)
GI50 (OVCAR-5): > 100 µM (inactive)
GI50 (HL-60): 25.9 µM (inactive)
GI50 (SW-620): > 100 µM (inactive)
GI50 (HOP-92): > 100 µM (inactive)
GI50 (SK-MEL-2): > 100 µM (inactive)
GI50 (HOP-62): > 100 µM (inactive)
GI50 (NCI-H460): > 100 µM (inactive)
GI50 (A549): > 100 µM (inactive)
GI50 (OVCAR-8): > 100 µM (inactive)
GI50 (MDA-N): 98.4 µM (inactive)
GI50 (U-251): 51.4 µM (inactive)
GI50 (HCC 2998): 95.9 µM (inactive)
GI50 (OVCAR-3): > 100 µM (inactive)
GI50 (HCT-116): 33.3 µM (inactive)
GI50 (SK-MEL-5): 18.5 µM (inactive)
GI50 (NCI/ADR-RES): 73.1 µM (inactive)
GI50 (CCRF-CEM): 27.1 µM (inactive)
GI50 (SF-539): > 100 µM (inactive)
GI50 (SNB-75): > 100 µM (inactive)
GI50 (UO-31): 78 µM (inactive)
GI50 (SF-268): > 100 µM (inactive)
GI50 (LOX IMVI): 20.7 µM (inactive)
GI50 (RXF 393): > 100 µM (inactive)
GI50 (SR): 25.1 µM (inactive)
GI50 (EKVX): 91 µM (inactive)
GI50 (PC-3): 38.9 µM (inactive)
GI50 (786-0): > 100 µM (inactive)
GI50 (OVCAR-4): > 100 µM (inactive)
GI50 (T47D): 53.1 µM (inactive)
GI50 (MDA-MB-435): 42 µM (inactive)
GI50 (MDA-MB-231): > 100 µM (inactive)
GI50 (K562): 26.5 µM (inactive)
GI50 (MCF7): 45.4 µM (inactive)
GI50 (UACC-257): 54.5 µM (inactive)
GI50 (ACHN): > 100 µM (inactive)
GI50 (SNB-19): > 100 µM (inactive)

CCN(CC)CCN(C(=O)C(C)(C)C)c1ccccc1N
GI50 (CAKI-1): > 100 µM (inactive)
GI50 (RPMI-8226): > 100 µM (inactive)
GI50 (IGROV-1): > 100 µM (inactive)
GI50 (NCI-H23): > 100 µM (inactive)
GI50 (SK-OV-3): > 100 µM (inactive)
GI50 (Malme-3M): > 100 µM (inactive)
GI50 (M14): > 100 µM (inactive)
GI50 (DU-145): > 100 µM (inactive)
GI50 (HCT-15): > 100 µM
GI50 (HT-29): > 100 µM (inactive)
GI50 (SK-MEL-28): > 100 µM (inactive)
GI50 (TK-10): > 100 µM (inactive)
GI50 (MOLT-4): > 100 µM (inactive)
GI50 (SF-295): > 100 µM (inactive)
GI50 (NCI-H522): > 100 µM (inactive)
GI50 (NCI-H226): > 100 µM (inactive)
GI50 (OVCAR-5): > 100 µM (inactive)
GI50 (HL-60): > 100 µM (inactive)
GI50 (SN12C): > 100 µM (inactive)
GI50 (SW-620): > 100 µM (inactive)
GI50 (HOP-92): > 100 µM (inactive)
GI50 (HOP-62): > 100 µM (inactive)
GI50 (NCI-H460): > 100 µM (inactive)
GI50 (A549): > 100 µM (inactive)
GI50 (OVCAR-8): > 100 µM (inactive)
GI50 (MDA-N): > 100 µM (inactive)
GI50 (U-251): > 100 µM (inactive)
GI50 (OVCAR-3): > 100 µM (inactive)
GI50 (HCT-116): > 100 µM (inactive)
GI50 (SK-MEL-5): > 100 µM (inactive)
GI50 (KM12): > 100 µM (inactive)
GI50 (NCI/ADR-RES): > 100 µM (inactive)
GI50 (CCRF-CEM): > 100 µM (inactive)
GI50 (SF-539): > 100 µM (inactive)
GI50 (SNB-75): > 100 µM (inactive)
GI50 (UO-31): > 100 µM (inactive)
GI50 (UACC-62): > 100 µM (inactive)
GI50 (SF-268): > 100 µM (inactive)
GI50 (RXF 393): > 100 µM (inactive)
GI50 (SR): > 100 µM (inactive)
GI50 (EKVX): > 100 µM (inactive)
GI50 (PC-3): > 100 µM (inactive)
GI50 (786-0): > 100 µM (inactive)
GI50 (OVCAR-4): > 100 µM (inactive)
GI50 (K562): > 100 µM (inactive)
GI50 (BT-549): > 100 µM (inactive)
GI50 (MCF7): > 100 µM (inactive)
GI50 (UACC-257): > 100 µM (inactive)
GI50 (ACHN): > 100 µM (inactive)
GI50 (SNB-19): > 100 µM (inactive)

N#Cc1c2c(c(Nc3ccc(Cl)cc3)n3c1nc1ccccc13)CCCC2
GI50 (CAKI-1): 36.5 µM (inactive)
GI50 (RPMI-8226): 4.75 µM (inactive)
GI50 (IGROV-1): 47.4 µM (inactive)
GI50 (NCI-H23): > 71.3 µM (inactive)
GI50 (SK-OV-3): 54.7 µM (inactive)
GI50 (Malme-3M): > 67.6 µM (inactive)
GI50 (M14): > 83.2 µM (inactive)
GI50 (DU-145): > 69.2 µM (inactive)
GI50 (Hs-578T): 26.2 µM (inactive)
GI50 (HCT-15): 25.9 µM
GI50 (HT-29): 18.5 µM (inactive)
GI50 (SK-MEL-28): > 76 µM (inactive)
GI50 (TK-10): 53.1 µM (inactive)
GI50 (MOLT-4): 3.18 µM (inactive)
GI50 (SF-295): 28.5 µM (inactive)
GI50 (NCI-H522): 17.5 µM (inactive)
GI50 (NCI-H226): > 64.3 µM (inactive)
GI50 (A498): > 94.6 µM (inactive)
GI50 (OVCAR-5): > 100 µM (inactive)
GI50 (HL-60): 7.03 µM (inactive)
GI50 (SN12C): 65.9 µM (inactive)
GI50 (SW-620): > 61 µM (inactive)
GI50 (HOP-92): > 37.4 µM (inactive)
GI50 (SK-MEL-2): > 63.8 µM (inactive)
GI50 (HOP-62): 31.2 µM (inactive)
GI50 (NCI-H460): 14.8 µM (inactive)
GI50 (A549): 43 µM (inactive)
GI50 (OVCAR-8): 37.6 µM (inactive)
GI50 (U-251): 18.5 µM (inactive)
GI50 (HCC 2998): 32.9 µM (inactive)
GI50 (OVCAR-3): 13.4 µM (inactive)
GI50 (HCT-116): 8.65 µM (inactive)
GI50 (SK-MEL-5): 20.5 µM (inactive)
GI50 (KM12): 20.3 µM (inactive)
GI50 (NCI/ADR-RES): 44.1 µM (inactive)
GI50 (CCRF-CEM): 34.6 µM (inactive)
GI50 (SF-539): 21.1 µM (inactive)
GI50 (SNB-75): 28.7 µM (inactive)
GI50 (UO-31): > 51.2 µM (inactive)
GI50 (UACC-62): > 100 µM (inactive)
GI50 (SF-268): 44 µM (inactive)
GI50 (LOX IMVI): > 63.5 µM (inactive)
GI50 (RXF 393): 33.7 µM (inactive)
GI50 (SR): 17 µM (inactive)
GI50 (EKVX): 48.3 µM (inactive)
GI50 (PC-3): 7.06 µM (inactive)
GI50 (786-0): 26.9 µM (inactive)
GI50 (OVCAR-4): 16.2 µM (inactive)
GI50 (T47D): 33.1 µM (inactive)
GI50 (MDA-MB-435): > 100 µM (inactive)
GI50 (MDA-MB-231): > 86.9 µM (inactive)
GI50 (K562): 4.46 µM (inactive)
GI50 (BT-549): > 70.1 µM (inactive)
GI50 (MCF7): 7.59 µM (inactive)
GI50 (UACC-257): 48 µM (inactive)
GI50 (ACHN): 18.6 µM (inactive)
GI50 (COLO 205): 37.9 µM (inactive)
GI50 (SNB-19): 23.1 µM (inactive)

Source: ChEMBL document CHEMBL1201862, “PubChem BioAssay data set” (2004)
